Assay results published in patent publication US7838498B2, “Benzylic glycoside derivatives and methods of use” (Theracos, Inc., priority 2007, dated 2010).
pIC50: −log10 of the molar value.

Legend:
[1] = biological target: T1, human SGLT2 (Homo sapiens, UniProt P31639); assay: Methyl-α-D-[U-14C]glucopyranoside uptake assay, cells stably expressing human SGLT2; assay type: cell-based; settings: HEK293.ETN cells expressing human SGLT2, 1.5 h incubation
T1 construct: A full-length cDNA clone expressing human SGLT2 (GenScript Corporation) was subcloned
T1 sequence (P31639 1-672): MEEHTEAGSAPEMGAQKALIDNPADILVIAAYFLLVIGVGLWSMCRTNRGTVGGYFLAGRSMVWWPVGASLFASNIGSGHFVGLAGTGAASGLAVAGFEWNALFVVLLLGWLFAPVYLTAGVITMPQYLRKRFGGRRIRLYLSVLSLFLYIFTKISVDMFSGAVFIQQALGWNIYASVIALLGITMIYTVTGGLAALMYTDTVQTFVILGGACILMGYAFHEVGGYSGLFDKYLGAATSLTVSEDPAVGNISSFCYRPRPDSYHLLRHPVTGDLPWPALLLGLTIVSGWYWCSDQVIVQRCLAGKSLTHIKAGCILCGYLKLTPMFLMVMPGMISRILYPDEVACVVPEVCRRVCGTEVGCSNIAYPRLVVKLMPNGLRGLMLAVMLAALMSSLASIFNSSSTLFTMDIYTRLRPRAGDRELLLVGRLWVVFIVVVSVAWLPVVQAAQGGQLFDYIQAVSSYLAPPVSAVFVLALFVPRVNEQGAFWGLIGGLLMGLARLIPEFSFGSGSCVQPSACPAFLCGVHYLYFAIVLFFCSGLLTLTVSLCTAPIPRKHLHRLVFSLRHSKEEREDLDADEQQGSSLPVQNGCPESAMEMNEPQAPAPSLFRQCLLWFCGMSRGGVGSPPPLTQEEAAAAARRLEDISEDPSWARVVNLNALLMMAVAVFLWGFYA
Text: A full-length cDNA clone expressing human SGLT2 (GenScript Corporation) was subcloned into […] and Not I sites of pEAK15 expression vector. Clones harboring the cDNA inserts were identified by restriction analysis.
Plasmid containing human SGLT2 was linearized with Nsi I and purified by agarose gel electrophoresis. Using Lipofectamine 2000 Transfection Reagent (Invitrogen Corporation), DNA was transfected into HEK293.ETN cells and cultured in Dulbecco's Modified Eagle Medium (DMEM) containing 10% fetal bovine serum (FBS) at 37° C. under 5% CO2 for 24 h. Transfectants were selected in the same growth medium supplemented with puromycin (Invitrogen Corporation) for two weeks. Puromycin-resistant cells were recovered and seeded on a fresh 96-well plate (single cell per well) and cultured in the presence of puromycin until cells became confluent. Puromycin-resistant clones were evaluated for SGLT2 activity in the methyl-α-D-[U-^14C]glucopyranoside uptake assay described below.
(§1) Cells expressing SGLT1 or SGLT2 were seeded on 96-well ScintiPlate scintillating plates (PerkinElmer, Inc.) in DMEM containing 10% FBS (1×10^5 cells per well in 100 μL medium) incubated at 37° C. under 5% CO2 for 48 h prior to the assay. Cells were washed twice with 150 μL of either sodium buffer (137 mM NaCl, 5.4 mM KCl, 2.8 mM CaCl2, 1.2 mM MgCl2, 10 mM tris(hydroxymethyl)aminomethane/N2-hydroxyethylpiperazine-N′-ethanesulfonic acid [Tris/Hepes], pH 7.2) or sodium-free buffer (137 mM N-methyl-glucamine, 5.4 mM KCl, 2.8 mM CaCl2, 1.2 mM MgCl2, 10 mM Tris/Hepes, pH 7.2). Test compound in 50 μL each of sodium or sodium-free buffer containing 40 μCi/L methyl-α-D-[U-^14C]glucopyranoside (Amersham Biosciences/GE Healthcare), either with (symbols in parentheses) or without (symbols without parentheses) 25% human serum, was added per well of a 96-well plate and incubated at 37° C. with shaking for either 2 h (SGLT1 assay) or 1.5 h (SGLT2 assay). Cells were washed twice with 150 μL of wash buffer (137 mM N-methylglucamine, 10 mM Tris/Hepes, pH 7.2) and methyl-α-D-[U-^14C]glucopyranoside uptake was quantitated using a TopCount scintillation counter (PerkinElmer, Inc.). Sodium-dependent glucopyranoside uptake was measured by subtracting the values obtained with sodium-free buffer from those obtained using sodium buffer (average of triplicate determinations).

[2] = biological target: T2, human SGLT1 (Homo sapiens, UniProt P13866); assay: Methyl-α-D-[U-14C]glucopyranoside uptake assay, COS-7 cells expressing human SGLT1; assay type: cell-based; settings: COS-7 cells expressing human SGLT1, 2 h incubation
T2 construct: Full-length human SGLT1 cDNA on pDream2.1 expression vector was obtained from GenScript Corporation; host or cells: COS-7 cells (American Type Culture Collection)
T2 sequence (P13866 1-664): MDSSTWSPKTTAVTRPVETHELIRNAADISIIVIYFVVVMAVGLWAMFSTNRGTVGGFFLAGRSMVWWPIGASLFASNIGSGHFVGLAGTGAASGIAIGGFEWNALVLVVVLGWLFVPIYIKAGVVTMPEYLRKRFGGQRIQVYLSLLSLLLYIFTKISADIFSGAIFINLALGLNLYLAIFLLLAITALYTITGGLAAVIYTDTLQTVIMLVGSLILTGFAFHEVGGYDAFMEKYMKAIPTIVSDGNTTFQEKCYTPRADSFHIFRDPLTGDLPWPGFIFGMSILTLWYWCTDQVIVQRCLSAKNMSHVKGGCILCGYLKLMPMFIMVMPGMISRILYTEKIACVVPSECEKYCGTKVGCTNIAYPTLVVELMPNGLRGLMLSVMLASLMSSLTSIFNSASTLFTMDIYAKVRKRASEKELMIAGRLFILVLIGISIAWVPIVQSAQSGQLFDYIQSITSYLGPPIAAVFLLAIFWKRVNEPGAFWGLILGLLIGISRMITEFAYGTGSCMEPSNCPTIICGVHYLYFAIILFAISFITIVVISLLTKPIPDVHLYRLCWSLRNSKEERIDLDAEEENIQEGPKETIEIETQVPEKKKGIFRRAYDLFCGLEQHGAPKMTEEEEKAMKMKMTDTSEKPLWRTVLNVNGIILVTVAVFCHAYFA
Protocol: Full-length human SGLT1 cDNA on pDream2.1 expression vector was obtained from GenScript Corporation and propagated in Escherichia coli strain DH5α using Luria-Bertani (LB) medium containing ampicillin. Plasmid DNA was isolated using the QIAGEN Plasmid Midi Kit (QIAGEN Inc.). […] Transfected cells were stored in DMEM containing 10% dimethyl sulfoxide (DMSO) at −80° C.
as §1

[3] = without human serum (symbols without parentheses)
[4] = with 25% human serum (symbols in parentheses)

Structure (SMILES) | pIC50 [1, 3] | pIC50 [2, 3] | pIC50 [1, 4] | pIC50 [2, 4]
C#CCOCCc1cc(Cl)c(Cc2ccc(CC)cc2)cc1[C@@H]1O[C@H](CO)[C@@H](O)[C@H](O)[C@H]1O [Compound AM, (2S,3R,4R,5S,6R)-2-(4-chloro-5-(4-ethylbenzyl)-2-(2-(prop-2-ynyloxy)ethyl)phenyl)-6-(hydroxymethyl)tetrahydro-2H-pyran-3,4,5-triol] | > 6.00 | < 5.00 |  | 
CCc1ccc(Cc2cc([C@@H]3O[C@H](CO)[C@@H](O)[C@H](O)[C@H]3O)c(OCCOC3CCCC3)cc2Cl)cc1 [Compound BG, (2S,3R,4R,5S,6R)-2-(4-chloro-2-(2-(cyclopentyloxy)ethoxy)-5-(4-ethylbenzyl)phenyl)-6-(hydroxymethyl)tetrahydro-2H-pyran-3,4,5-triol] |  |  | > 6.00 | < 5.00
CCc1ccc(Cc2cc([C@@H]3O[C@H](CO)[C@@H](O)[C@H](O)[C@H]3O)c(COCCO)cc2Cl)cc1 [Compound O, (2S,3R,4R,5S,6R)-2-(4-chloro-5-(4-ethylbenzyl)-2-((2-hydroxyethoxy)methyl)phenyl)-6-(hydroxymethyl)tetrahydro-2H-pyran-3,4,5-triol] | > 6.00 | 5.00 to 6.00 |  | 
CCc1ccc(Cc2cc([C@@H]3O[C@H](CO)[C@@H](O)[C@H](O)[C@H]3O)c(OCCOCC(F)(F)F)cc2Cl)cc1 [Compound BS, (2S,3R,4R,5S,6R)-2-(4-chloro-5-(4-ethylbenzyl)-2-(2-(2,2,2-trifluoroethoxy)ethoxy)phenyl)-6-(hydroxymethyl)tetrahydro-2H-pyran-3,4,5-triol] |  |  | > 6.00 | < 5.00

Other lines, results leading:

pIC50 [1, 3] | pIC50 [2, 3] | pIC50 [1, 4] | pIC50 [2, 4] | Structure (SMILES)
> 6.00 | < 5.00 |  |  | C#CCOCc1cc(Cl)c(Cc2ccc(CC)cc2)cc1[C@@H]1O[C@H](COC(C)=O)[C@@H](O)[C@H](O)[C@H]1O [Compound BD, ((2R,3S,4R,5R,6S)-6-(4-chloro-5-(4-ethylbenzyl)-2-((prop-2-ynyloxy)methyl)phenyl)-3,4,5-trihydroxytetrahydro-2H-pyran-2-yl)methyl acetate]
 |  | > 6.00 | < 5.00 | CC#CCOCCOc1cc(Cl)c(Cc2ccc(CC)cc2)cc1[C@@H]1O[C@H](CO)[C@@H](O)[C@H](O)[C@H]1O [Compound BF, (2S,3R,4R,5S,6R)-2-(2-(2-(but-2-ynyloxy)ethoxy)-4-chloro-5-(4-ethylbenzyl)phenyl)-6-(hydroxymethyl)tetrahydro-2H-pyran-3,4,5-triol]
> 6.00 | 5.00 to 6.00 |  |  | CCc1ccc(Cc2cc([C@@H]3O[C@H](CO)[C@@H](O)[C@H](O)[C@H]3O)c(CCOCCF)cc2Cl)cc1 [Compound AH, (2S,3R,4R,5S,6R)-2-(4-chloro-5-(4-ethylbenzyl)-2-(2-(2-fluoroethoxy)ethyl)phenyl)-6-(hydroxymethyl)tetrahydro-2H-pyran-3,4,5-triol]
